What all share (type): functional
The species entered for one assay is Bos taurus. Description: Percent enhancement of [3H]NPE binding to bovine striatal membranes at 100 nM concentration. The settings on record: Striatum, Membrane.
In assay [1] the target is T1, Dopamine receptor (Rattus norvegicus) (UniProt P25115+P19020+P30729+P18901+P61169). Briefly: Dopamine receptor modulating activity of compound was evaluated by rat nigrostriatal 6-hydroxydopamine lesion rotation model at dose of 0.1 ug/kg given intraperitoneally.
For assay [2], the target named is T1, Dopamine receptor (Rattus norvegicus). Description: Dopamine receptor modulating activity of compound was evaluated by rat nigrostriatal 6-hydroxydopamine lesion rotation model at dose of 1 ug/kg given intraperitoneally.

The structures appear in SMILES notation.

For `NC(=O)CN1CC[C@@](Cc2ccccc2)(NC(=O)[C@@H]2CCCN2)C1=O`, the Enhancement in the assay filed under Bos taurus stood at 116%.

In the case of `NC(=O)[C@H]1CS[C@@H]2C[C@@H](NC(=O)[C@@H]3CCCN3)C(=O)N12`, the Enhancement in assay [1] was 23%.

As to `CCCC[C@@]1(NC(=O)[C@@H]2CCCN2)CCN(CC(N)=O)C1=O`, in the assay filed under Bos taurus, the Enhancement came to 89%.

Take `CCCC[C@@]1(NC(=O)[C@@H]2CCCN2)C[C@H]2SC[C@H](C(N)=O)N2C1=O`: the Enhancement in assay [1] was 56%.

As to `CC(C)C[C@@]1(NC(=O)[C@@H]2CCCN2)CCN(CC(N)=O)C1=O`, in the assay filed under Bos taurus, the Enhancement amounted to 59%.

For the compound `NC(=O)CN1CC[C@@H](NC(=O)[C@@H]2CCCN2)C1=O`, the Enhancement in the assay filed under Bos taurus worked out at 36%.

In the case of `CC(C)C[C@@]1(NC(=O)[C@@H]2CCCN2)C[C@H]2SC[C@H](C(N)=O)N2C1=O`, the Enhancement in assay [2] stood at 44%.

For the compound `NC(=O)[C@H]1CS[C@@H]2C[C@@](Cc3ccccc3)(NC(=O)[C@@H]3CCCN3)C(=O)N12`, in assay [2], the Enhancement came out at 30%.

Source of the values: ChEMBL document CHEMBL1145977, “Synthesis and dopamine receptor modulating activity of 3-substituted gamma-lactam peptidomimetics of L-prolyl-L-leucyl-glycinamide” (J Med Chem, 2003).
